Data as given in patent US20120245137A1 (Zalicus Pharmaceuticals Ltd., priority 2009, published 2012).

Tests used:
[1] = biological target: human α1G T-type channels (Homo sapiens, UniProt O43497); assay: T-type calcium channel block, whole cell patch clamp, α1G; assay type: cell-based; conditions: HEK cells stably expressing human α1G; mainly non-inactivated protocol; values above 10,000 nM represented as 10000
Method in brief: (§1)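 Read-out: current block in whole-cell patch clamp of HEK 293 cells stably expressing human α1G or α1H subunits. Compounds were perfused locally in external solution (0.1-0.01% DMSO) under resting and inactivating voltage protocols.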

[2] = biological target: human α1H T-type channels (Homo sapiens, UniProt O95180); assay: T-type calcium channel block, whole cell patch clamp, α1H; assay type: cell-based; conditions: HEK cells stably expressing human α1H; mainly non-inactivated protocol; values above 10,000 nM represented as 10000
Method in brief: as §1

T-type calcium channel = assay: T-type channel blocking activity as summarised in text (subunit not stated); assay type: cell-based, human; conditions: Table 4
Experimental: T-type calcium channel blocking activity was assayed in human embryonic kidneycells, HEK 293 (Invitrogen), stably transfected with the T-type calcium channel subunits. Briefly, cells were cultured in Dulbecco's modified eagle medium (DMEM) supplemented with 10% fetal bovine serum, 200 U/ml penicillin, and 0.2 mg/mL streptomycin at 37° C. with 5% CO2. At 85% confluency, cells were split with 0.25% trypsin/1 mM EDTA and plated at 10% confluency on glass coverslips. At 12 hours, the medium was replaced, and the cells stably transfected using a standard calcium phosphate protocol and the appropriate calcium channel cDNA's. Fresh DMEM was supplied, and the cells transferred to 28° C./5% CO2. Cells were incubated for 1 to 2 days prior to whole cell recording.
Standard patch-clamp techniques were employed to identify blockers of T-type currents. Briefly, previously described HEK cell lines stably expressing human α1G, α1H, and α1I T-type channels were used for all the recordings (passage #: 4-20, 37° C., 5% CO2). Whole cell patch clamp experiments were performed using an Axopatch 200B amplifier (Axon Instruments, Burlingame, Calif.) linked to a personal computer equipped with pCLAMP software. Data were analyzed using Clampfit (Axon Instruments) and SigmaPlot 4.0 (Jandel Scientific). […]

[3] = biological target: N-type calcium channel subunits (α1B, α2δ, and β3a) (Homo sapiens, UniProt Q00975); assay: Block of Cav2.2 channel, whole cell voltage clamp, manual and PatchXpress; assay type: cell-based; conditions: Table 5; table follows Assay Example 3 (whole cell voltage clamp / PatchXpress); assay not given
Method in brief: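 Percent block taken as current amplitude ratio with versus without compound, applied in rising doses; IC50 fitted where one cell received multiple doses. Protocol: 50 ms pulses to +20 mV at 0.067 Hz from […] or −90 mV holding; P/n leak subtraction, no junction-potential correction; manual and PatchXpress recordings.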

male CF1 mice = assay: 6 Hz psychomotor seizure model of partial epilepsy; assay type: in vivo; design: concentration or dose not given beside the values; conditions: 6 Hz 32 mA corneal stimulus
Source text: Compounds can also be evaluated for the protection against seizures induced by a 6 Hz, 0.2 ms rectangular pulse width of 3 s duration, at a stimulus intensity of 32 mA (CC97) applied to the cornea of male CF1 mice (20-30 g) according to procedures described by Barton et al, “Pharmacological Characterization of the 6 Hz Psychomotor Seizure Model of Partial Epilepsy,” Epilepsy Res. 47(3):217-27 (2001). Seizures are characterised by the expression of one or more of the following behaviours: stun, forelimb clonus, twitching of the vibrissae and Straub-tail immediately following electrical stimulation.

mice = conditions: mouse, in vivo
Experimental: In mice, the rotarod procedure (Dunham and Miya, J. Am. Pharmacol. Assoc. 46:208-209 (1957)) is used to disclose minimal muscular or neurological impairment (MMI). When a mouse is placed on a rod that rotates at a speed of 6 rpm, the animal can maintain its equilibrium for long periods of time. The animal is considered toxic if it falls off this rotating rod three times during a 1-min period.

human α1G T-type channels, sequence (O43497 whole entry, the tested form may be a part): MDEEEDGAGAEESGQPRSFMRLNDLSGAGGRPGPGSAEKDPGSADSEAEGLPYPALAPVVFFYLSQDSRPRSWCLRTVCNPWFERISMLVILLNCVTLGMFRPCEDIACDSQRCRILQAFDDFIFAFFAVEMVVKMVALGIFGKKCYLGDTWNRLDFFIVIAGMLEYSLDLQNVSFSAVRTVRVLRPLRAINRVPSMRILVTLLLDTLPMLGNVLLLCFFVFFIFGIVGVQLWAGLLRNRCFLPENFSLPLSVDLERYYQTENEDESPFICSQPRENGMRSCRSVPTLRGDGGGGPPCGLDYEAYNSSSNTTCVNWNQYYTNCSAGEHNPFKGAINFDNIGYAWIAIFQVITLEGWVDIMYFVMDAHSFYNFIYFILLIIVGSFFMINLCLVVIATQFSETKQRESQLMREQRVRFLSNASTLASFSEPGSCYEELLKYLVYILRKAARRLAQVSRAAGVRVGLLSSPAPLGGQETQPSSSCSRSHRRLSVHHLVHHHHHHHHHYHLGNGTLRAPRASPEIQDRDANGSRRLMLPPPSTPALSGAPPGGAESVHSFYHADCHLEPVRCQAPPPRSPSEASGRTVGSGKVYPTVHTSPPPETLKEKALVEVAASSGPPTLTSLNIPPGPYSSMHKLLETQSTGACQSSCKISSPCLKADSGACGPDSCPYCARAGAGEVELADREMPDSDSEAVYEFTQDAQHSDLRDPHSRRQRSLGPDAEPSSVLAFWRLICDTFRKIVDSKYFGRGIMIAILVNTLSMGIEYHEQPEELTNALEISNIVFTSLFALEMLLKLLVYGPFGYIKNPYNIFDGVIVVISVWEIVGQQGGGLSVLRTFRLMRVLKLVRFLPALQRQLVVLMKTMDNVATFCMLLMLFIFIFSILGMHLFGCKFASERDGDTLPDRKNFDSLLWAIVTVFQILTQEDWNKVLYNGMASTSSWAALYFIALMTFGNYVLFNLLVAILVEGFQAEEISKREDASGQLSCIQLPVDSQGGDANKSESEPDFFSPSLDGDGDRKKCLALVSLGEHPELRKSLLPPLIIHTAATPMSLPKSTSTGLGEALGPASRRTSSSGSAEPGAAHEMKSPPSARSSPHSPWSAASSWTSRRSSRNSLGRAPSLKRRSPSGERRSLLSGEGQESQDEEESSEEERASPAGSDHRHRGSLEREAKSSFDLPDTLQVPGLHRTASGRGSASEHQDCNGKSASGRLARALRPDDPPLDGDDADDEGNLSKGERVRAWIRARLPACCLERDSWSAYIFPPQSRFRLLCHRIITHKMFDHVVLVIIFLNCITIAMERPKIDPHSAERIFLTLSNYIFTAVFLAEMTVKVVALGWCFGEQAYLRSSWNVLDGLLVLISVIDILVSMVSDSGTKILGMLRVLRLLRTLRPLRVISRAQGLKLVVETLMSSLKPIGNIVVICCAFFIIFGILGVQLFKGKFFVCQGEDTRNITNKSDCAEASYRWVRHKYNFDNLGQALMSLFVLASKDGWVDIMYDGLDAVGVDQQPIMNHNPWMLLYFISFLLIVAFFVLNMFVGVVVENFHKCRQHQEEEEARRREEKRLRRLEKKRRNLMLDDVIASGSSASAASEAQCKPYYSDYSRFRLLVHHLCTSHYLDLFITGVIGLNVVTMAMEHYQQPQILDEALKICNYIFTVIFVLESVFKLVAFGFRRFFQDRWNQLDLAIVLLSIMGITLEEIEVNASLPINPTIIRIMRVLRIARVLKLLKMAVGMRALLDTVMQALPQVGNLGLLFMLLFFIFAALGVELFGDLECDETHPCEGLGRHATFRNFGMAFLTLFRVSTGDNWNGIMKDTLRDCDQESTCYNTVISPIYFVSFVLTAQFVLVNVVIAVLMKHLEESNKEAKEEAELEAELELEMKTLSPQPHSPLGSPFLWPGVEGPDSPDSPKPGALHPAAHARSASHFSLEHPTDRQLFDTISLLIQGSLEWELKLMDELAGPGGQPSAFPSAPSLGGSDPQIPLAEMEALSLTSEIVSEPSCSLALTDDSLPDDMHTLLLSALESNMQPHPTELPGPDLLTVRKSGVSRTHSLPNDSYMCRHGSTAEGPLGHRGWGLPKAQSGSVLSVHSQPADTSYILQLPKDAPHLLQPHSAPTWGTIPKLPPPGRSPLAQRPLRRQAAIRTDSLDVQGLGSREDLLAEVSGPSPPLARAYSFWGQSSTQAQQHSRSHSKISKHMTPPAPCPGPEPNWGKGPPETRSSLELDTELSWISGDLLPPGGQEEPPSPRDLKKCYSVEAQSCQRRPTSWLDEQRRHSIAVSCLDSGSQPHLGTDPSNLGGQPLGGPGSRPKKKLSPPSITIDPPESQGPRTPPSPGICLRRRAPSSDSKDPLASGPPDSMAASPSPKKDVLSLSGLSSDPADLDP
human α1H T-type channels, sequence (O95180 whole entry): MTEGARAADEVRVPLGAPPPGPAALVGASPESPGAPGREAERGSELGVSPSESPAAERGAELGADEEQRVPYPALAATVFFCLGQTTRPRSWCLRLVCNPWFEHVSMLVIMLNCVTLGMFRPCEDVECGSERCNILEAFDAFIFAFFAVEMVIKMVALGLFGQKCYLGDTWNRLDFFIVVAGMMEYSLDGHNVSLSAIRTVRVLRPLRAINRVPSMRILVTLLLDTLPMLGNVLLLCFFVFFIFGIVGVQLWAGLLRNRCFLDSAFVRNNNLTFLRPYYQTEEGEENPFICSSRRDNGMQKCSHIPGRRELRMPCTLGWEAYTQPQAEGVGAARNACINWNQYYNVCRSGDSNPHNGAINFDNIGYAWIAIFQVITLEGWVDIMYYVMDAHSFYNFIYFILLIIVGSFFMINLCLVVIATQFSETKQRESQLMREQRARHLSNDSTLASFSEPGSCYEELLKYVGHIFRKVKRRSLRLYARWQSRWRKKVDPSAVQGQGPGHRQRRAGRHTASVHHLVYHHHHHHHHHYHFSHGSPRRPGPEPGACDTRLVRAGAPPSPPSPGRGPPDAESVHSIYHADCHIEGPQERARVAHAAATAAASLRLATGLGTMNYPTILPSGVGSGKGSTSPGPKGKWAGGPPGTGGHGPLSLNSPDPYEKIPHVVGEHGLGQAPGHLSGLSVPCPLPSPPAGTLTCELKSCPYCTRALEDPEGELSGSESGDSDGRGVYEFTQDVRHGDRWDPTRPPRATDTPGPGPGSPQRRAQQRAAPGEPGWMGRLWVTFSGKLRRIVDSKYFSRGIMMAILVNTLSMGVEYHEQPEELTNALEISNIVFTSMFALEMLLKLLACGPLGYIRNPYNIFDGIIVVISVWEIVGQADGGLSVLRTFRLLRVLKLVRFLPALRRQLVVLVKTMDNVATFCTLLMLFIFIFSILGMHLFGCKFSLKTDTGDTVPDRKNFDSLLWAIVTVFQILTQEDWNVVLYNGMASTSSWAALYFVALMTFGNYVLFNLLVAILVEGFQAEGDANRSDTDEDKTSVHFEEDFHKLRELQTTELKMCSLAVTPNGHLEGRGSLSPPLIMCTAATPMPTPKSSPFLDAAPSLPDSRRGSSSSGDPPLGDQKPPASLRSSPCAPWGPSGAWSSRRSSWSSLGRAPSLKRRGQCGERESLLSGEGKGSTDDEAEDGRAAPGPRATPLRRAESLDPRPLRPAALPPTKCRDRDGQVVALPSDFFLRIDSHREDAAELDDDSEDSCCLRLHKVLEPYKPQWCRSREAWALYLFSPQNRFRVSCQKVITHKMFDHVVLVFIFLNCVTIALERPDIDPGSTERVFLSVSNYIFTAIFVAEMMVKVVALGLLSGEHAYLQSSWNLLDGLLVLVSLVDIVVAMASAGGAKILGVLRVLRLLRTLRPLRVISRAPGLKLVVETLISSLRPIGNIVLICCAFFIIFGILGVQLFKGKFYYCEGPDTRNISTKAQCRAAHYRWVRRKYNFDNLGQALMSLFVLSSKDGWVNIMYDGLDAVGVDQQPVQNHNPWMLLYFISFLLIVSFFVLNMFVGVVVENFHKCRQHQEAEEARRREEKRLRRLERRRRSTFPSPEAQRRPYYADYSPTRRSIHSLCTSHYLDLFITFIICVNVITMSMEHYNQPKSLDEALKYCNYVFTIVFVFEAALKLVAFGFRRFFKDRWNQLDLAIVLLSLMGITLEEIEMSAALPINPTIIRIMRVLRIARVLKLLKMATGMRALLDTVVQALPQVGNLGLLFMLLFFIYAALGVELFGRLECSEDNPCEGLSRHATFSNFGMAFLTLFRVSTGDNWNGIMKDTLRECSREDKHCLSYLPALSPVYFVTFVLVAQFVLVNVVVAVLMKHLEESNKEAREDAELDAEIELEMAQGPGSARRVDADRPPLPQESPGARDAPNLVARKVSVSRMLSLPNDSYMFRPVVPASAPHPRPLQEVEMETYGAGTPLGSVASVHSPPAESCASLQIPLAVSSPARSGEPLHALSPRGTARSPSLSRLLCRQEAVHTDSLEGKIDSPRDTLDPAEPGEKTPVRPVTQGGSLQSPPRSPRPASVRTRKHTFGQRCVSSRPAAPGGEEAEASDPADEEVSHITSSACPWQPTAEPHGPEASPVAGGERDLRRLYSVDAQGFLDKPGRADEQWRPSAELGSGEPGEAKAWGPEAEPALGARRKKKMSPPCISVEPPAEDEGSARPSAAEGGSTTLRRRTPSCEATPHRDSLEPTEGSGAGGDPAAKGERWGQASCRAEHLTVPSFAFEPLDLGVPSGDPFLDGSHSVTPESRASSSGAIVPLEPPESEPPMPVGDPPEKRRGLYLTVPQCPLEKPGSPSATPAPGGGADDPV

Compound | IC50 [1] | IC50 [2] | activity (IC50), T-type channel block (T-type calcium channel) | IC50 [3] | Epilepsy 6 Hz (% protected) 0.25 hr (male CF1 mice) | Epilepsy 6 Hz (% protected) 0.5 hr (male CF1 mice) | Epilepsy 6 Hz (% protected) 1 hr (male CF1 mice) | Epilepsy 6 Hz (% protected) 2 hr (male CF1 mice) | Epilepsy 6 Hz (% protected) 4 hr (male CF1 mice) | EPILEPSY ROTAROD (% IMPAIRED) 0.25 hr (mice) | EPILEPSY ROTAROD (% IMPAIRED) 0.5 hr (mice) | EPILEPSY ROTAROD (% IMPAIRED) 1 hr (mice) | EPILEPSY ROTAROD (% IMPAIRED) 2 hr (mice) | EPILEPSY ROTAROD (% IMPAIRED) 4 hr (mice)
COc1cc(F)cc(C(=O)N[C@H]2CC[C@H](S(=O)(=O)c3cccc(C(F)(F)F)c3)CC2)c1 [Compound 59, 3-fluoro-5-methoxy-N-((1R,4R)-4-(3-(trifluoromethyl)phenylsulfonyl)cyclohexyl)benzamide] | 9130 nM | 8090 nM | lowest IC50 | 440 nM | – | – | – | – | – | – | – | – | – | –
O=C(NCC1(O)CCC(S(=O)(=O)c2cccc(C(F)(F)F)c2)CC1)c1ccc(F)c(Cl)c1 [Compound 230, 3-chloro-4-fluoro-N-(((1S,4S)-1-hydroxy-4-(3-(trifluoromethyl)phenylsulfonyl)cyclohexyl)methyl)benzamide] | 1180 nM | – | – | 790 nM | 0% | 25% | 25% | 100% | 0% | 0% | 0% | 0% | 0% | 0%
CS(=O)(=O)c1cc(C(F)(F)F)ccc1C(=O)NCC1CC(S(=O)(=O)c2cccc(C(F)(F)F)c2)C1 [Compound 356, 2-(methylsulfonyl)-4-(trifluoromethyl)-N-(((1R,3R)-3-(3-(trifluoromethyl)phenylsulfonyl)cyclobutyl)methyl)benzamide] | 9510 nM | 3170 nM | – | 570 nM | 25% | 0% | 0% | 0% | 0% | 0% | 0% | 0% | 0% | 0%
